Assay results published in patent US20120065205A1, “PYRAZINE CARBOXAMIDE OREXIN RECEPTOR ANTAGONISTS” (priority 2009, published 2012).

Target: T1, OX2R (Homo sapiens, UniProt O43614)
T1 construct: expressed in transfected cells; host or cells: CHO cells (membranes)
T1 sequence (O43614 1-444): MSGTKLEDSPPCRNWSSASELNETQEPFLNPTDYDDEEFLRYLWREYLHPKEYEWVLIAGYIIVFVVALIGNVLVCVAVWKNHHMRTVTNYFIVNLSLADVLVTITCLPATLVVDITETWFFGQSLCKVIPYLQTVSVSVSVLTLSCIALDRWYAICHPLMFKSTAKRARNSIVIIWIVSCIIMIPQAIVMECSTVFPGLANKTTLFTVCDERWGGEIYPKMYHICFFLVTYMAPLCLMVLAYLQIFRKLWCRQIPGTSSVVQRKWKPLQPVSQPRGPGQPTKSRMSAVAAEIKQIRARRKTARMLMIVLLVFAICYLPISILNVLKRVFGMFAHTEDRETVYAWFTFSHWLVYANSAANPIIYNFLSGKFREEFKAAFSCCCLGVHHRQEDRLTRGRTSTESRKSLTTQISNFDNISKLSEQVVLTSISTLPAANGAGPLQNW
Assay: radioligand binding assay, membranes from CHO cells expressing OX2 receptor
Settings: CHO cell membranes
Description: The utility of the compounds in accordance with the present invention as orexin receptor OX1R and/or OX2R antagonists may be readily determined without undue experimentation by methodology well known in the art, including the “FLIPR Ca^2+ Flux Assay” (Okumura et al., Biochem. Biophys. Res. Comm. 280:976-981, 2001). In a typical experiment the OX1 and OX2 receptor antagonistic activity of the compounds of the present invention was determined in accordance with the following experimental method. For intracellular calcium measurements, Chinese hamster ovary (CHO) cells expressing the rat orexin-1 receptor or the human orexin-2 receptor, are grown in Iscove's modified DMEM containing 2 mM L-glutamine, […], 1% hypoxanthine-thymidine supplement, 100 U/ml penicillin, 100 ug/ml streptomycin and 10% heat-inactivated fetal calf serum (FCS). The cells are seeded at 20,000 cells/well into Becton-Dickinson black 384-well clear bottom sterile plates coated with poly-D-lysine. All reagents were from GIBCO-Invitrogen Corp. The seeded plates are incubated overnight at 37° C. and 5% CO2. […] Within the Fluorescent Imaging Plate Reader (FLIPR, Molecular Devices), test compounds are added to the plate in a volume of 25 ul, incubated for 5 min and finally 25 ul of agonist is added. Fluorescence is measured for each well at 1 second intervals for 5 minutes and the height of each fluorescence peak is compared to the height of the fluorescence peak induced by 70 pM Ala-6,12 orexin-A with buffer in place of antagonist. […] Alternatively, compound potency can be assessed by a radioligand binding assay (described in Bergman et. al. Bioorg. Med. Chem. Lett. 2008, 18, 1425-1430) in which the inhibition constant (Ki) is determined in membranes prepared from CHO cells expressing either the OX1 or OX2 receptor. The intrinsic orexin receptor antagonist activity of a compound which may be used in the present invention may be determined by these assays.

COc1ccc(CNC(=O)c2nc(-c3cc(C)cc(C)c3)cnc2N2CCOCC2)nc1OC [2-5, N-[(5,6-dimethoxypyridin-2-yl)methyl]-6-(3,5-dimethylphenyl)-3-(morpholin-4-yl)pyrazine-2-carboxamide]
Ki: 33 nM

COc1ccc(CNC(=O)c2nc(-c3cncc(C)c3)cnc2-c2ccccc2)nc1OC [1-5, N-[(5,6-dimethoxypyridin-2-yl)methyl]-6-(5-methylpyridin-3-yl)-3-phenylpyrazine-2-carboxamide]
Ki: 1.4 nM

COc1ccc(CNC(=O)c2nc(-c3cncc(Cl)c3)cnc2-c2ccccc2F)nc1OC [1-9, 6-(5-chloropyridin-3-yl)-N-[(5,6-dimethoxypyridin-2-yl)methyl]-3-(2-fluorophenyl)pyrazine-2-carboxamide]
Ki: 3.9 nM
